# Laboratory results: patent US20100041089A1, “IMPROVED METHOD FOR DETECTING CHEMICAL […]” (priority 2006, published 2010)
# Test system: yeast genes (expressed mRNA)
# Test: DNA chip measurement of expressed mRNA of yeast genes after culture with a toxic chemical substance
# Format: cell-based, Saccharomyces cerevisiae S288C
# Protocol: Yeast (Saccharomyces cerevisiae S288C (a SUC2mal mel gap2 CUP1)) were cultured at 25° C. on YPD medium (yeast extract 1%, polypeptone 2%, glucose 2%). One of toxic chemical substances was added to the cell at logarithmic growth phase, and the cell was further cultured for two hours. Cell was cultured without any chemical substance in the same condition, and was used as a control. Concentrations of the chemical substances were defined to inhibit the growth of the yeast but not lead to death.
# After the completion of cultivation, the culture was centrifuged to collect the cells. To the cells, sodium acetate buffer (50 mM sodium acetate, 10 mM EDTA, 1% SDS) was added, and the mixture was shaken at 65° C. for five minutes, followed by returning to room temperature, and obtaining the supernatant, which procedure was repeated two times. To the supernatant, ½ amount of a solution of phenol/chloroform (1:1) was added, and the mixture was centrifuged to give a supernatant, an equal amount of chloroform was added, and the mixture was centrifuged to give a supernatant. To the supernatant, an equal amount of isopropanol containing 0.3 M sodium acetate was added, and the mixture was allowed to stand at room temperature for 30 minutes, after which the mixture was centrifuged to give sediment of the whole RNAs. Seventy % ethanol was added to the sediment, and the mixture was again centrifuged to give sediment, which was then dried and dissolved in water. mRNA was isolated from the whole RNAs as followings. In view of the fact that a poly A chain is attached to the 3′ terminus of mRNA, a polynucleotide having a poly T structure which was immobilized on the surface of latex beads was used to trap the mRNA, and then the mRNA was washed and eluted with spine column (Oligotex-dT30<Super>mRNA Purification Kit, Takara). Reverse transcription of the mRNA was conducted with a reverse transcriptase (Super Script II Reverse Transcriptase; catalogue No. 18064-014, GibcoBRL) using fluorescence-labeled nucleotides to give cDNAs that were introduced with Cy3-dUTP or Cy5-dUTP during the reverse transcription.
# The labeled cDNAs were dissolved in TE buffer (10 mM Tris-HCl/1 mM EDTA, pH 8.0), and the solution was dropped on the DNA chip containing the whole genes of yeast (DNA Chip Research Inc. Japan) so that the cDNAs were hybridized on the DNA chip at 65° C. for over 12 hours. The fluoresces intensity of the DNA chip was read with a scanner, and the ratio relative to the fluorescence intensity resulting from the absence of chemical substance was estimated as the following, which is shown in Tables 1 to 9.
# In the Tables, “Intensity” indicated in the rightmost column is a value of the level of expressed mRNA of each gene in control cells as divided by the average level of the expressions of the whole genes. A gene of which mRNA level is lower in control, and is higher in cases of addition of chemical substance, is especially useful in the detection of toxic substances.
# Here, when a ratio of an amount of mRNA expressed in the presence of the chemical substance to an amount of mRNA expressed in the absence of the chemical substance is two or more, then it is considered significant.
smiles,measurement,setting,value
"S=C([S-])NCCNC(=S)[S-].[Zn+2] [(11), Zinc N,N′-ethylenebis(dithiocarbamate)]",The level of expressed mRNA in the presence of chemical substance/The level of expressed mRNA in the absence of chemical substance,"yeast gene YAL053W, cultured two hours with substance",2.3
same,The level of expressed mRNA in the presence of chemical substance/The level of expressed mRNA in the absence of chemical substance,"yeast gene YAR028W, cultured two hours with substance",0.9
same,The level of expressed mRNA in the presence of chemical substance/The level of expressed mRNA in the absence of chemical substance,"yeast gene YBL048W, cultured two hours with substance",2.0
same,The level of expressed mRNA in the presence of chemical substance/The level of expressed mRNA in the absence of chemical substance,"yeast gene YBL107C, cultured two hours with substance",2.9
same,The level of expressed mRNA in the presence of chemical substance/The level of expressed mRNA in the absence of chemical substance,yeast gene YBR008C (detoxification protein gene),9.4
same,The level of expressed mRNA in the presence of chemical substance/The level of expressed mRNA in the absence of chemical substance,yeast gene YBR072W (stress protein genes),6.3
same,The level of expressed mRNA in the presence of chemical substance/The level of expressed mRNA in the absence of chemical substance,"yeast gene YBR096W, cultured two hours with the chemical substance",1.2
same,The level of expressed mRNA in the presence of chemical substance/The level of expressed mRNA in the absence of chemical substance,"yeast gene YBR269C, cultured two hours with substance",1.2
same,The level of expressed mRNA in the presence of chemical substance/The level of expressed mRNA in the absence of chemical substance,"yeast gene YCR102C, cultured two hours with substance",13.5
same,The level of expressed mRNA in the presence of chemical substance/The level of expressed mRNA in the absence of chemical substance,"yeast gene YDL023C, cultured two hours with the chemical substance",3.5
same,The level of expressed mRNA in the presence of chemical substance/The level of expressed mRNA in the absence of chemical substance,"yeast gene YDL072C, cultured two hours with substance",1.4
same,The level of expressed mRNA in the presence of chemical substance/The level of expressed mRNA in the absence of chemical substance,"yeast gene YDL169C, cultured two hours with substance",1.2
same,The level of expressed mRNA in the presence of chemical substance/The level of expressed mRNA in the absence of chemical substance,"yeast gene YDL204W, cultured two hours with substance",3.2
same,The level of expressed mRNA in the presence of chemical substance/The level of expressed mRNA in the absence of chemical substance,"yeast gene YDL218W, cultured two hours with substance",5.7
same,The level of expressed mRNA in the presence of chemical substance/The level of expressed mRNA in the absence of chemical substance,"yeast gene YDL222C, cultured two hours with substance",2.6
same,The level of expressed mRNA in the presence of chemical substance/The level of expressed mRNA in the absence of chemical substance,"yeast gene YDR031W, cultured two hours with substance",1.2
same,The level of expressed mRNA in the presence of chemical substance/The level of expressed mRNA in the absence of chemical substance,"yeast gene YDR070C, cultured two hours with substance",4.1
same,The level of expressed mRNA in the presence of chemical substance/The level of expressed mRNA in the absence of chemical substance,yeast gene YDR077W (stress protein genes),6.8
same,The level of expressed mRNA in the presence of chemical substance/The level of expressed mRNA in the absence of chemical substance,"yeast gene YDR330W, cultured two hours with substance",0.9
same,The level of expressed mRNA in the presence of chemical substance/The level of expressed mRNA in the absence of chemical substance,"yeast gene YDR391C, cultured two hours with substance",1.9
same,The level of expressed mRNA in the presence of chemical substance/The level of expressed mRNA in the absence of chemical substance,"yeast gene YDR411C, cultured two hours with substance",1.3
same,The level of expressed mRNA in the presence of chemical substance/The level of expressed mRNA in the absence of chemical substance,"yeast gene YDR486C, cultured two hours with substance",1.4
same,The level of expressed mRNA in the presence of chemical substance/The level of expressed mRNA in the absence of chemical substance,"yeast gene YDR511W, cultured two hours with substance",1.2
same,The level of expressed mRNA in the presence of chemical substance/The level of expressed mRNA in the absence of chemical substance,"yeast gene YDR533C, cultured two hours with substance",7.7
same,The level of expressed mRNA in the presence of chemical substance/The level of expressed mRNA in the absence of chemical substance,"yeast gene YDR545W, cultured two hours with substance",0.7
same,The level of expressed mRNA in the presence of chemical substance/The level of expressed mRNA in the absence of chemical substance,"yeast gene YEL001C, cultured two hours with substance",1.2
same,The level of expressed mRNA in the presence of chemical substance/The level of expressed mRNA in the absence of chemical substance,"yeast gene YEL033W, cultured two hours with the chemical substance",1.2
same,The level of expressed mRNA in the presence of chemical substance/The level of expressed mRNA in the absence of chemical substance,"yeast gene YER004W, cultured two hours with substance",2.2
same,The level of expressed mRNA in the presence of chemical substance/The level of expressed mRNA in the absence of chemical substance,"yeast gene YER035W, cultured two hours with substance",1.4
same,The level of expressed mRNA in the presence of chemical substance/The level of expressed mRNA in the absence of chemical substance,"yeast gene YER038C, cultured two hours with substance",0.6
same,The level of expressed mRNA in the presence of chemical substance/The level of expressed mRNA in the absence of chemical substance,"yeast gene YER079W, cultured two hours with substance",2.1
same,The level of expressed mRNA in the presence of chemical substance/The level of expressed mRNA in the absence of chemical substance,"yeast gene YER106W, cultured two hours with substance",1.0
same,The level of expressed mRNA in the presence of chemical substance/The level of expressed mRNA in the absence of chemical substance,"yeast gene YER158C, cultured two hours with substance",2.3
same,The level of expressed mRNA in the presence of chemical substance/The level of expressed mRNA in the absence of chemical substance,"yeast gene YER163C, cultured two hours with substance",1.6
same,The level of expressed mRNA in the presence of chemical substance/The level of expressed mRNA in the absence of chemical substance,"yeast gene YER175C, cultured two hours with substance",1.1
same,The level of expressed mRNA in the presence of chemical substance/The level of expressed mRNA in the absence of chemical substance,"yeast gene YFL006W, cultured two hours with substance",1.2
same,The level of expressed mRNA in the presence of chemical substance/The level of expressed mRNA in the absence of chemical substance,"yeast gene YFL010C, cultured two hours with substance",1.4
same,The level of expressed mRNA in the presence of chemical substance/The level of expressed mRNA in the absence of chemical substance,"yeast gene YFL024C, cultured two hours with substance",0.6
same,The level of expressed mRNA in the presence of chemical substance/The level of expressed mRNA in the absence of chemical substance,"yeast gene YFL032W, cultured two hours with substance",1.1
same,The level of expressed mRNA in the presence of chemical substance/The level of expressed mRNA in the absence of chemical substance,"yeast gene YFR015C, cultured for two hours with substance",3.9
